Results on 3 compounds are retold here after patent US20250205217A1, “METHODS OF IMPROVING CANCER IMMUNOTHERAPY” (THE REGENTS OF THE UNIVERSITY OF CALIFORNIA, priority 2022, published 2025).

“Also recorded” adds a separate entry of the source.

The subject of assay [1] is MB49 bladder cancer cells. The assay can be described thus: Murine bladder cancer model (MB49), subcutaneous tumor growth. The assay is classed as in vivo, mice. The settings on record: for MB49 tumor volume, combination with anti-PD1: omega-6 rich diet, 5 mg/kg/day via drinking water + anti-PD1 200 μg Q3D, vs either agent alone, P<0.05. An excerpt:
10^6 MB49 cells were introduced into mice, and treatment was initiated with established tumors (˜200 mm^3), seven days after tumor injection. The CTLA-4 antibody used is from BioCell, Catalog number BE0131; In VivoMAb anti-mouse CTLA-4 (CD152). See, FIG. 1A and FIG. 1B.
The mice in this study were randomized, and treatment was initiated with established tumors (˜200 mm^3), seven days after […]. See, FIG. 2A-2C; FIG. 9A-9F.
(A & B). Mice were inoculated subcutaneously with 1×10^6 MB49 cells. Treatment initiated when MB49 tumors reached ˜200 mm^3. Mice were randomized and treated with PTUPB (60 mg/kg Q3D, orally) or chemotherapy (cisplatin+gemcitabine; cisplatin=5 mg/kg, gemcitabine=75 mg/kg, Q3D). Mice were sacrificed after 16 days of treatment. n=4-5 mice/group. Gene expression levels of sEH and COX-2 in tumor tissue after 16 days of treatment. Analyzed by qPCR and normalized by GAPDH. A: **Control vs chemotherapy (p=0.0099), **PTUPB vs chemotherapy (p=0.0095); B. **Control vs chemotherapy (p=0.0072), ***PTUPB vs chemotherapy (p=0.0001). (C) Mice were inoculated subcutaneously with 1×10^6 MB49 cells. Treatment initiated when MB49 tumors reached ˜200 mm^3. Mice were randomized and treated with combinations of PTUPB (60 mg/kg Q3D, orally), anti-PD1 (200 μg Q3D), anti-CTLA4 ([…]), chemotherapy (cisplatin+gemcitabine; cisplatin=5 mg/kg, gemcitabine=75 mg/kg, Q3D). Mice were sacrificed after 16 days of treatment. n=4-5 mice/group. *p<0.05. (D and E). Gene expression levels of EGF and VEGF-C in tumor tissue after 16 days of treatment. Analyzed by qPCR and normalized by GAPDH. D: *chemotherapy vs chemotherapy+PTUPB (p=0.0136); E: **Control vs anti-CTLA4 (p=0.0012), **PTUPB vs anti-CTLA4 (p=0.0081), **anti-CTLA4 vs anti-CTLA4+PTUPB (0.0296). (F) Mice were inoculated orthotopically into the bladder wall with 5×10^5 MB49 cells. Treatment was initiated 3 days after tumor injection with PTUPB (60 mg/kg Q3D, orally). n=5 mice per group. **PTUPB vs control (p=0.0018).
(§1) (A) MB49 bladder cancer tumor volume over time. Following 12 days of pre-treatment with the omega-6 rich diet, tumor cells (1×10^6 MB49 bladder cancer cells) were injected subcutaneously into the mid dorsum. Once tumors reached ˜200 mm^3, treatment was initiated with anti-PD1 (200 μg Q3D), EC5026 (5 mg/kg/day via drinking water), combination anti-PD1+EC5026, or no treatment (control). […] N=3-5 mice per group. P<0.05. (B) B16F10 melanoma tumor volume over time. […]. Following 12 days of pre-treatment with the omega-6 rich diet, tumor cells (1×10^6 B16F10 melanoma cells) were injected subcutaneously into the mid dorsum. Once tumors reached ˜200 mm^3, treatment was initiated with anti-CTLA4 (200 μg 1st dose, then 100 μg Q3D), 1770 (5 mg/kg/day via drinking water), combination 1770+anti-CTLA4, or no treatment (control). […] N=4-5 mice per group.
FIGS. 6A-6E Dietary omega-3 supplementation inhibits tumor growth in both fast-growing and slow-growing tumor models in mice. (A) Prostate cancer (RM1) tumor growth over time. Following 12 days of pre-treatment with the omega-3 rich diet or control diet, tumor cells (1×10^5 RM1 prostate cancer cells) were injected subcutaneously into the mid dorsum. […] N=3-5 mice/group. (B) MB49 bladder cancer tumor volume over time. Following 12 days of pre-treatment with the omega-3 rich diet or control diet, tumor cells (1×10^6 MB49 bladder cancer cells) were injected subcutaneously. […] N=3-5 mice/group. […]

Assay [2] relates to oxylipin. The assay can be described thus: LCMS/MS oxylipin analysis of MB49 bladder cancer tumor tissue. The assay is classed as in vivo. The settings on record: mice on the control diet only. The procedure:
These lipid mediators are potential biomarkers of bladder cancer and the anti-tumor response to the diets (e.g. omega-3 or omega-6 fatty acids), immunotherapy (e.g., anti-PD1), and sEH inhibitor (e.g., 5026). (A) Heatmap of LCMS/MS oxylipin analysis performed on murine MB49 bladder cancer tumor tissue. […] Tumor tissue from mice treated with the control diet only. […] Tumor tissue from mice treated with the control diet only.

The subject of assay [3] is B16F10 melanoma cells. The assay can be described thus: B16F10 melanoma tumor volume over time. Type of assay: in vivo, mice. The settings on record: omega-6 rich diet; 5 mg/kg/day via drinking water + anti-CTLA4; vs either agent alone. As to the method:
as §1
(A) MB49 bladder cancer tumor volume over time. Following 12 days of pre-treatment with the omega-3 rich diet or control diet, tumor cells (1×10^6 MB49 bladder cancer cells) were injected subcutaneously into the mid dorsum. Once tumors reached ˜200 mm^3, treatment was initiated with either anti-PD1 (200 μg Q3D) or no treatment (control). […] N=3-5 mice per group. p<0.0001. (B) Prostate cancer (RM1) tumor volume over time. […]

With `CC[C@H](C)C(=O)N1CCC(NC(=O)Nc2ccc(OC(F)(F)F)c(F)c2)CC1` [EC5026], the “MB49 tumor volume, combination with anti-PD1” value in assay [1] (5 mg/kg/day) is recorded as “significantly smaller tumors”; in assay [1] (listed as 5026, 5 mg/kg/day), “unexpected induction of tumor regression; also recorded: synergizes with immunotherapy”. The “levels of 7,8-DiHDPE, 17,18-DiHETE, and 15,16-DiHODE in MB49 bladder cancer tissue” value in assay [2] is on record as “prevented this increase”. The “levels of 15(16)-EpODE, 12(13)-EpOME, 17(18)-EpETE and 14(15)-EpETrE in MB49 bladder cancer tissue” value in assay [2] is “prevented the drop in these metabolites, and increased levels of these metabolites compared to controls”.

In the case of `NS(=O)(=O)c1ccc(-n2nc(CCCNC(=O)Nc3ccc(C(F)(F)F)cc3)cc2-c2ccccc2)cc1` [PTUPB], the “tumor growth, combination with immunotherapy (anti-CTLA-4)” value in assay [1] (10^6 MB49 cells, established tumors (~200 mm^3), seven days after tumor injection, FIG. 1) is recorded as “unexpected induction of tumor regression; also recorded: enhances immunotherapy”. For the same compound, the “tumor growth, alone and with chemotherapy or immunotherapy” value in assay [1] (PTUPB 60 mg/kg Q3D orally, MB49, FIG. 9) is “blocks tumor growth and enhances chemotherapy and immunotherapy”. Further, the “tumor growth, combination with chemotherapy (gemcitabine and cisplatin) and immunotherapy” value in assay [1] (established MB49 tumors (~200 mm^3), 16 days of treatment, FIG. 2, FIG. 9) is “unexpected induction of tumor regression; also recorded: induce tumor regression”.

Take `CCC(=O)N1CCC(NC(=O)Nc2ccc(OC(F)(F)F)cc2)CC1` [Compound 1770]: the “B16F10 melanoma tumor volume, combination with anti-CTLA4” value in assay [3] was “tended to have smaller tumors”.
